Results: patent publication US10918741B2, “PSMA-targeting imaging agents” (THE CLEVELAND CLINIC FOUNDATION, priority 2014, dated 2021)
Entries after “also recorded” stand apart in the source; their conditions may differ. Read-outs that look alike come from different tables or passages of the source. *1 amine or outer side, *2 acyl side, *3 side chain or, on linkers, in order; H or OH if unused. Where a SMILES comes first, the peptide text is derived from it. [ ]: non-standard residue; d: D form. γGlu = O=C(O)[C@H](CCC(=O)[*:2])N[*:1]; X1 = O=C(C1CCC(CN[*:1])CC1)[*:2]; CO = O=C([*:1])[*:2]; Ahx = NCCCCCC(=O)O

Tests used:
[1] = biological target: T1, PSMA (Homo sapiens, UniProt Q04609); conditions: cited from earlier work; for lesion detection in humans, in words / non-PSMA related background in humans, in words: early human trials; for (per patient) lesion detection rate: 37 patients with prostate cancer
[2] = published values, cited from earlier work; for Blood pool activity: 2 hours post injection; for liver background: at 2 hours
[3] = biological target: T1, PSMA; test: Competitive binding assay; set-up: endogenous in cells; host or cells: LNCaP (endogenous PSMA, from ATCC) or PC3-PIP (retrovirally transformed PSMA-positive PC3, from Dr. Michel Sadelain)
Experimental: The prostate cancer cell line LNCaP (PSMA-positive) was obtained from American Type Culture Collection (Manassas, Va.). Retrovirally transformed PSMA positive PC3-PIP cells and transfection controlled PC3-flu cells were obtained from Dr. […] (Laboratory of Gene Transfer and Gene Expression, Gene Transfer and Somatic Cell Engineering Facility, Memorial-Sloan Kettering Cancer Center, New York, N.Y.). Cells were grown at 37° C. and 5% CO2 under a humidified atmosphere. […] The mixture was centrifuged at 3,000 g for 5 min at 4° C., then washed three times with 500 μL of cold PBS. […] The concentration required to inhibit 50% of binding was determined (IC50) by Graph Pad Prism 3.0.

[4] = tested on: PC3-PIP (PSMA+) tumor xenographs; test: Biodistribution study of [Al^18F]5; type: in vivo, mice; conditions: for Biodistribution: Tumor (PC3PIP): preliminary
Experimental: (§1) Positron emission tomography and biodistribution study of [Al^18F]5: Male NSG mice at least 6 weeks old were subcutaneously implanted with two human PC3-PIP (PSMA+) tumor xenographs. When one of the tumors reached 0.5 mL in volume, imaging and biodistribution studies were conducted. For imaging, 0.3-0.4 mCi of [Al^18F]5 was injected via the tail vein. The mouse was anesthetized with isoflurane and imaged at 1 hour post injection on a clinical PET/CT scanner (Biograph mCT, Siemens Molecular Imaging, Hoffman Estates, Ill.) using super-resolution sampling and iterative deconvolution processing. For the biodistribution study without imaging, 50-150 μCi of [Al^18F]5 was injected in PC3-PIP tumor bearing mice which were sacrificed at one and two hours post injection for biodistribution measurements.

[5] = Biodistribution study of [Al^18F]5; type: in vivo, mice; conditions: male, NSG, mouse, total radioactivity
Experimental: as §1

[6] = blood, read-out: Biodistribution: Blood
[7] = liver, read-out: Biodistribution: Liver

T1 sequence (Q04609 whole entry): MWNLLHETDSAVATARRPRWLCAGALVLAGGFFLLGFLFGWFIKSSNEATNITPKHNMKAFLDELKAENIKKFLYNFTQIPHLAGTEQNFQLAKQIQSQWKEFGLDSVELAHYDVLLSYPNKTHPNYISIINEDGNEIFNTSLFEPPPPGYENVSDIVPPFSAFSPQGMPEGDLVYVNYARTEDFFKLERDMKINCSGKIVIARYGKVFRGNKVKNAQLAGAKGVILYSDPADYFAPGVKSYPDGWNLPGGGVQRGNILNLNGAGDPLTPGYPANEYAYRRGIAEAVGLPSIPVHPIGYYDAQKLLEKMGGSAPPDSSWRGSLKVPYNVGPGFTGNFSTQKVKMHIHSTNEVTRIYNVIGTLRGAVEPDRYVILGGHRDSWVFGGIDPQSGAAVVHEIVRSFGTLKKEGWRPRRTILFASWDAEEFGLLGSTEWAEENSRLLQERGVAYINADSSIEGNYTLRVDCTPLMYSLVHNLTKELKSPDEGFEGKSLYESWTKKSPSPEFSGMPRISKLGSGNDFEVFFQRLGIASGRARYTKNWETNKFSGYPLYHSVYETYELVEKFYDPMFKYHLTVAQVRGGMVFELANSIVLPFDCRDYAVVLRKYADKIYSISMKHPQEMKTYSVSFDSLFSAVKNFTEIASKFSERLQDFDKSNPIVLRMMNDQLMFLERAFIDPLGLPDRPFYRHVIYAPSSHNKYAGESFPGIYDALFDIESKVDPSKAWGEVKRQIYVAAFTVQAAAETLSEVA

SMILES: O=C(O)CC[C@H](NC(=O)N[C@@H](CSCc1ccc([18F])cc1)C(=O)O)C(=O)O [^18F-DCFBC]
- lesion detection in humans, in words [1]: detected lymph node and bone metastases at 2 hr post injection
- non-PSMA related background in humans, in words [1]: elevated liver background and unexpected blood pool retention
- Blood pool activity [2]: 0.4 % ID/g
- liver background [2]: 2.1 % ID/g

SMILES: O=C(O)CC[C@H](NC(=O)N[C@@H](CSC1CC(=O)N(CC2CCC(C(=O)NCCCCCC(=O)N[C@H](CCC(=O)O)C(=O)N[C@H](CCC(=O)O)C(=O)N[C@H](CCC(=O)O)C(=O)NCC(=O)O)CC2)C1=O)C(=O)O)C(=O)O (stereo partly drawn) [Compound 1, ZJ-MCC-Ahx-dEdEdEG]
- affinity for PSMA, comparison in words [3]: affinity comparable to the parent urea ligand; also recorded: Neither compound came close to matching the affinity of RBI-1033
- IC50 ([3]; LNCaP or PC3-PIP cells, 12 nM [^3H] ligand, 1 hour at 37° C., 95% confidence intervals in parentheses): 2.2 nM

SMILES: O=C(O)CC[C@H](NC(=O)N[C@@H](CSC1CC(=O)N(CC2CCC(C(=O)NCCCCCC(=O)N[C@@H](Cc3ccc(O)cc3)C(=O)N[C@@H](Cc3ccc(O)cc3)C(=O)N[C@@H](Cc3ccc(O)cc3)C(=O)NCC(=O)O)CC2)C1=O)C(=O)O)C(=O)O (stereo partly drawn) [Compound 2, ZJ-MCC-Ahx-YYYG]
- affinity for PSMA, comparison in words [3]: affinity comparable to the parent urea ligand; also recorded: Neither compound came close to matching the affinity of RBI-1033

SMILES: NC(=O)[C@H](CCCCNC(=S)Nc1ccc(CC2CN(CC(=O)O)CCN(CC(=O)O)CCN2CC(=O)O)cc1)NC(=O)[C@H](Cc1ccc(O)cc1)NC(=O)[C@H](CCC(=O)O)NC(=O)[C@H](CCC(=O)O)NC(=O)[C@H](CCC(=O)O)NC(=O)CCCCCNC(=O)CC[C@H](NC(=O)N[C@@H](CCC(=O)O)C(=O)O)C(=O)O (single isomer, unassigned) [Compound 5, E′E-Ahx-EEEYK(Bn-NOTA)-NH2]
- affinity for PSMA, comparison in words [3]: same affinity for PSMA as compound 4

SMILES: O=C(O)CC[C@H](NC(=O)N[C@@H](CCCCNC(=O)c1ccc([18F])nc1)C(=O)O)C(=O)O [^18F-DCFPyL]
- Blood pool activity [2]: 0.4 % ID/g
- liver background [2]: 2.1 % ID/g

SMILES: NC(=O)[C@H](CS)NC(=O)CNC(=O)CNC(=O)CNC(=O)[C@H](Cc1ccc(O)cc1)NC(=O)CNC(=O)[C@@H](CCC(=O)O)NC(=O)[C@@H](CCC(=O)O)NC(=O)[C@@H](CCC(=O)O)NC(=O)CCCCCNC(=O)C1CCC(CNC(=O)CC[C@H](NC(=O)N[C@@H](CCC(=O)O)C(=O)O)C(=O)O)CC1 (stereo partly drawn) [Compound 3, E′E-Amc-Ahx-dEdEdEGYGGGC-NH2] ({Glu-CO-γGlu}-[X1][Ahx][dE][dE][dE]GYGGGC-NH2)
- affinity for PSMA, comparison in words [3]: equivalent to compound 1

SMILES: NC(=O)[C@H](CCCCNC(=S)Nc1ccc(CC2CN(CC(=O)O)CCN(CC(=O)O)CCN2CC(=O)O)cc1)NC(=O)[C@H](Cc1ccc(O)cc1)NC(=O)[C@H](CCC(=O)O)NC(=O)[C@H](CCC(=O)O)NC(=O)[C@H](CCC(=O)O)NC(=O)CCCCCNC(=O)CC[C@H](NC(=O)N[C@@H](CCC(=O)O)C(=O)O)C(=O)O (single isomer, unassigned) [[Al^18F]5]
- Biodistribution: Blood ([4]; 1 hour): 0.18% ± 0.09%
- Biodistribution: Bone ([4]; 1 hour): 0.39% ± 0.28%
- Biodistribution: Heart ([4]; 1 hour): 0.14% ± 0.11%
- Biodistribution: Kidney ([4]; 1 hour): 16.82% ± 5.60%
- Biodistribution: Liver ([4]; 1 hour): 0.41% ± 0.10%
- Biodistribution: Lung ([4]; 1 hour): 0.21% ± 0.05%
- Biodistribution: Muscle ([4]; 1 hour): 0.19% ± 0.12%
- Biodistribution: Small Intestine ([4]; 1 hour): 0.43% ± 0.51%
- Biodistribution: Spleen ([4]; 1 hour): 0.29% ± 0.14%
- Biodistribution: Stomach ([4]; 1 hour): 0.10% ± 0.03%
- Biodistribution: Thyroid ([4]; 1 hour): 0.11% ± 0.02%
- Biodistribution: Tumor (PC3PIP) ([4]; 1 hour, n = 4): 6.91% ± 1.44%
- Biodistribution: Heart ([4]; 2 hour): 0.04% ± 0.01%
- Biodistribution: Kidney ([4]; 2 hour): 5.96% ± 2.17%
- Biodistribution: Lung ([4]; 2 hour): 0.07% ± 0.04%
- Biodistribution: Small Intestine ([4]; 2 hour): 0.18% ± 0.02%
- Biodistribution: Spleen ([4]; 2 hour): 0.10% ± 0.04%
- Biodistribution: Stomach ([4]; 2 hour): 0.03% ± 0.02%
- Biodistribution: Thyroid ([4]; 2 hour): 0.05% ± 0.00%
- Tumor:blood ([4]; 2 hour): 115
- Tumor:bone ([4]; 2 hour): 46
- Tumor:liver ([4]; 2 hour): 27
- Tumor:muscle ([4]; 2 hour): 458
- Tumor:spleen ([4]; 2 hour): 46
- Biodistribution: Tumor (PC3PIP) ([4]; 2 hour, n = 6): 4.58% ± 0.55%
- dissociation of ^18F-fluoride from the complex (from bone uptake) ([4]; mouse, in vivo): no significant dissociation of ^18F-fluoride from the complex
- excretion in words ([4]; mouse, in vivo): very fast renal excretion
- tissue uptake at 1 h [5, 6]: ~0.18 %ID/g
- tissue uptake at 2 h [5, 6]: 0.04 %ID/g
- tissue uptake at 2 h ([5]; bone, read-out: Biodistribution: Bone): 0.1 %ID/g
- tissue uptake at 1 h [5, 7]: ~0.4 %ID/g
- tissue uptake at 2 h [5, 7]: 0.17 %ID/g
- tissue uptake at 2 h ([5]; muscle, read-out: Biodistribution: Muscle): 0.01 %ID/g
- tissue uptake at 2 h ([5]; tumor (PC3-PIP), n = 6, preliminary, read-out: Biodistribution: Tumor (PC3PIP)): 4.6 %ID/g

SMILES: O=C([O-])CN(CCN(CC(=O)[O-])Cc1cc(CCC(=O)NCCCCCC(=O)NCCCC[C@H](NC(=O)N[C@@H](CCC(=O)O)C(=O)O)C(=O)O)ccc1[O-])Cc1cc(CCC(=O)O)ccc1[O-].[68Ga+3].[OH3+] [Glu-NH—CO—NHLys(Ahx)-[^68Ga(HBED-CC)]]
- (per patient) lesion detection rate ([1]; at PSA <2.2 ng/ml): 60%
- (per patient) lesion detection rate ([1]; at PSA >2.2 ng/ml): 100%
- non-PSMA related background in humans, in words [1]: significant uptake in salivary glands, lacrimal glands, and liver

SMILES: O=C(O)CC[C@H](NC(=O)N[C@@H](CCCCNC(=O)Nc1ccc([123I])cc1)C(=O)O)C(=O)O [^123I-MIP-1095]
- lesion detection in humans, in words [1]: detection of soft tissue and bone metastases, as well as tumors in the prostate bed
- non-PSMA related background in humans, in words [1]: significant uptake in salivary glands, lacrimal glands, and liver

SMILES: O=C(O)CC[C@H](NC(=O)N[C@@H](CCCCNCc1ccc([123I])cc1)C(=O)O)C(=O)O [^123I-MIP-1072]
- lesion detection in humans, in words [1]: detection of soft tissue and bone metastases, as well as tumors in the prostate bed
- non-PSMA related background in humans, in words [1]: significant uptake in salivary glands, lacrimal glands, and liver
- Blood pool activity [2]: 0.21 % ID/g
- liver background [2]: 2.17 % ID/g
